From patent publication US6017715A (priority 1996, dated 2000)
In brackets after ≈: the same amount, converted by molar mass.

System: Ceriodaphnia
Settings: in vivo; for LC50 value: ceriodaphnia, 48 h

Row | Structure (SMILES) | LC50 value [ng/mL] | Chlorpyrifos TUs [TUs] | TUs by ELISA [TUs] | actual toxicity due to the chemical (TUs) | Diazinon TUs [TUs] | Actual Sample TUs / Sample TUs after treatment | Residual TUs (after PB Treatment) [TUs]
1 | CCOP(=S)(OCC)Oc1nc(Cl)c(Cl)cc1Cl [Chlorpyrifos, chlorpyrifos] | 0.08 (≈ 0.228 nM) | 2.2 | 3.2 | 0.5 |  |  | 
2 | CCOP(=S)(OCC)Oc1cc(C)nc(C(C)C)n1 [Diazinon, diazinon] | 0.38 (≈ 1.25 nM) |  | 1.9 | 0.9 | 4.5 |  | 
3 | CCCCOCCOCCOCc1cc2c(cc1CCC)OCO2 [PB, piperonyl butoxide] |  |  |  |  |  | ~ 1.0 TUs | 1.0
